# Source: patent US20230374043A1, “Hexadeca Ammonium-Modified Phthalocyanine and Preparation Method and Use Thereof as Photodynamic Drug” (Fuzhou University, priority 2020, published 2023)
# pIC50: −log10 of the molar value. Like-named read-outs stand apart in the source and are kept apart here.
# Assays:
# [1] = ultraviolet-visible absorption spectrum of zinc phthalocyanine complexes in water; assay type: physicochemical; details: for maximum absorption wavelength: in water; for state in water judged from Q band (aggregation / monomer): 4 μM, no surfactant
# Source text: It was seen from the figure that the Q bands of the zinc phthalocyanine complexes obtained in Examples 1 to 6 in water each were relatively wide and low, showing different degrees of aggregation; while only the Q bands of the zinc phthalocyanine complexes in Examples 7 and 8 in water were strong and sharp peaks.
# liver cancer H22 = test: small animal live imaging in tumor-bearing (liver cancer H22) mouse model; assay type: in vivo; details: tail vein; for time at which tumor fluorescence reached its peak: 0.8 mol·Kg^-1, imaging within 24 h
# Experimental: The 2,3-bis[3-(trimethylammonium)phenoxy]zinc phthalocyanine diiodate of Example 2, the 1,2,3,4-bis[3-(trimethylammonium)phenoxy]zinc phthalocyanine tetraiodate of Example 4, the octa-β-[3-(trimethylammonium)phenoxy]zinc phthalocyanine octaiodate of Example 6, and the hexadeca-[3-(trimethylammonium)phenoxy]zinc phthalocyanine hexadecaiodate of Example 8 each were dissolved in a physiological saline and diluted into solutions to be tested. A tumor-bearing (liver cancer H22) mouse model was established according to a method in the literature (ACS Applied Materials & Interfaces, 2019, 11(40), 36435-36443), 100 μL of each phthalocyanine solution (at an administration dosage: […]) was injected through the tail vein, and small animal live imaging was conducted within the next 24 h.
# [2] = system: human liver cancer cells HepG2; test: dark toxicity and photodynamic anticancer effect on HepG2 cells (MTT); assay type: cell-based; details: for photodynamic anticancer activity: HepG2, after illumination with red light; for photodynamic activity relative to tetrakis-α-(2,4,6-tris(N,N,N-trimethylammonium methyl)-phenoxy)zinc phthalocyanine dodecaiodate: HepG2, under illumination; for dark toxicity on HepG2 cells: without illumination, 2 h incubation
# Experimental: (§1) The dark toxicity and photodynamic anticancer effect of the 2,3-bis[3-(trimethyl ammonium)phenoxy]zinc phthalocyanine diiodate of Example 2, the 1,2,3,4-bis[3-(trimethylammonium)phenoxy]zinc phthalocyanine tetraiodate of Example 4, the octa-β-[3-(trimethylammonium)phenoxy]zinc phthalocyanine octaiodate of Example 6, and the hexadeca-[3-(trimethylammonium)phenoxy]zinc phthalocyanine hexadecaiodate of Example 8 on human liver cancer cells HepG2 were tested, respectively.
# The main steps were as follows: the above photosensitive medicaments were separately dissolved in water to obtain 1 mM photosensitizers, and then diluted into a cell medium to prepare cell mediums containing zinc phthalocyanine complexes at different concentrations. The human liver cancer cells HepG2 were cultured in the mediums containing zinc phthalocyanine complexes at different concentrations for 2 h; the medium was discarded; and after washing with PBS, the cells were added into a new medium (without zinc phthalocyanine complexes). Illumination experiment group: the cells were irradiated with red light for 30 min at a power of irradiated light at 15 mW cm^−2 using red light with a wavelength greater than 600 nm as an excitation light source; non-illumination control group: the cells were placed in the dark for 30 min. After illumination or non-illumination, the cell viability was examined by MTT.
# (§2) The red light with a wavelength greater than 610 nm was provided by a 500 W halogen lamp connected to an insulated water tank and an optical filter greater than 610 nm.
# Staphylococcus aureus [3] = test: dark toxicity and photodynamic antibacterial effect against Staphylococcus aureus (colony count); assay type: cell-based; details: for increase compared with the IC90 value of MB: under illumination; for IC90: 4 h incubation, red light >610 nm, 15 mW cm^-2, 30 min, read-out: IC90 value (concentration required to kill 90% of Staphylococcus aureus); for photodynamic antibacterial activity: after illumination with red light; for dark toxicity on Staphylococcus aureus: without illumination, 4 h in PBS, colony count
# Experimental: as §1, with “antibacterial” for “anticancer”, “2,3-bis[3-(trimethylammonium)phenoxy]zinc” for “2,3-bis[3-(trimethyl ammonium)phenoxy]zinc”, “against Staphylococcus aureus” for “on human liver cancer cells HepG2”, “tested.” for “tested, respectively.”
# 1 mM of the photosensitive medicament was diluted into PBS to prepare a PBS solutions containing zinc phthalocyanine complexes at different concentrations, and then Staphylococcus aureus was cultured in the PBS solutions containing zinc phthalocyanine complexes at different concentrations for 4 h. Illumination experiment group: the cells were irradiated with red light for 30 min at a power of irradiated light at 15 mW cm^−2 using red light with a wavelength greater than 610 nm as an excitation light source; non-illumination control group: the cells were placed in the dark for 30 min. A treated cell suspension was inoculated on a surface of a Luria-Bertani medium, cultured for 48 h, and the dark toxicity and photodynamic activity of the photosensitive medicament to Staphylococcus aureus were examined by the number of colonies.
# as §2
# Staphylococcus aureus [4] = details: comparison value, source not stated, read-out: IC90 value of the commonly used photosensitizer; cited from earlier work
# Staphylococcus aureus [5] = test: photodynamic antibacterial effect on mice infected with Staphylococcus aureus; assay type: in vivo; details: 15 d
# Experimental: A photodynamic antibacterial effect of the hexadeca-[3-(trimethylammonium)phenoxy]zinc phthalocyanine hexadecaiodate of Example 8 was tested on mice infected with Staphylococcus aureus.
# 0.1 mL of a PBS solution containing Staphylococcus aureus colonies was inoculated subcutaneously on the right abdomen of depilated normal-grade KM female mice (weighed about 20 g), at a cell concentration of (1-2)×10^6 CFU·mL^−1, and the mice could be treated two days after inoculation. 4 groups were set up, namely a hexadeca-[3-(trimethylammonium)phenoxy]zinc phthalocyanine hexadecaiodate+laser group, a hexadeca-[3-(trimethylammonium)phenoxy]zinc phthalocyanine hexadecaiodate group, a blank+laser group, and a blank group. Before treatment, a sterile absorbent pad of a wound dressing was soaked with 100 μL of the phthalocyanine aqueous solution (containing 1% CEL), applied to the wound of the treatment group, and fixed with a zinc oxide tape. The wound dressing was applied for 2 h each time, and then the dressing was changed once, and then continued for another 2 h. The blank group was given normal saline for applying. After 4 h, the illumination group was treated with laser at (685±5) nm (with a light intensity of 9.4 mW·cm^−2 for 5 min). The mice were observed and recorded for 15 d. After 15 d, the tissues at the infected site were excised, ground and extracted with 1 mL of a sterilized PBS to obtain a bacterial suspension, diluted by 50 times, spread on the surface of the corresponding Luria-Bertani medium, with parallelly 3 plates for each concentration, cultured in a 37° C. incubator, and then observed and counted after 24 h.
# subcutaneous tumors = test: photodynamic tumor inhibition in KM mice with subcutaneous tumors; assay type: in vivo
# Experimental: The zinc phthalocyanine complex obtained in Example 8 was dissolved in physiological saline and diluted to form a solution to be tested. […] with subcutaneous tumors were taken, and each drug was divided into 4 groups (a medication+laser group, a medication group, a normal saline group, and a normal saline+laser group), with 5 mice in each group; when the tumor grew to (60-100) mm^3, 100 μL of a phthalocyanine aqueous solution was injected intravenously at a dosage of […]. After 1 h, the mice were anesthetized and irradiated with laser of (685±5) nm (at a light intensity of 9.4 mW cm^−2 for 10 min). The mice were continued to be fed, and observed every other day; a weight of the mice was measured and a long diameter and a short diameter of the mice were measured with a vernier caliper for a total of 14 d.
# [6] = Homo sapiens, HepG2, read-out: half maximal inhibitory concentration (IC50)
Molecule,maximum absorption wavelength [1] [nm],state in water judged from Q band (aggregation / monomer) [1],enrichment in organs (liver cancer H22; 0.8 mol·Kg^-1),metabolism in vivo (liver cancer H22; 0.8 mol·Kg^-1),time at which tumor fluorescence reached its peak (liver cancer H22),photodynamic anticancer activity [2],"photodynamic activity relative to tetrakis-α-(2,4,6-tris(N,N,N-trimethylammonium methyl)-phenoxy)zinc phthalocyanine dodecaiodate [2] [times]","pIC50 [2, 6]",dark toxicity on HepG2 cells ([2]; MTT),increase compared with the IC90 value of MB (Staphylococcus aureus [3]; Staphylococcus aureus) [times],IC90 (Staphylococcus aureus [3]; Staphylococcus aureus) [nM],photodynamic antibacterial activity (Staphylococcus aureus [3]),dark toxicity on Staphylococcus aureus (Staphylococcus aureus [3]),accumulation / targeting ability in tumor sites (liver cancer H22; 0.8 mol·Kg^-1),also measured
"1,2,3,4,8,9,10,11,15,16,17,18,22,23,24,25-hexadeca[3-(dimethylamino)phenoxy]zinc phthalocyanine complex [Example 7]",727,monomers,–,–,–,–,–,–,–,–,–,–,–,–,–
"C[N+](C)(C)c1cccc(Oc2cc3c(cc2Oc2cccc([N+](C)(C)C)c2)C2=[N+]4C3=Nc3c5ccccc5c5[n]3[Zn@]43[n]4c(c6ccccc6c4=N2)=NC2=[N+]3C(=N5)c3ccccc32)c1 [Example 2, 2,3-bis[3-(trimethylammonium)phenoxy]zinc phthalocyanine diiodate]",–,–,enriched to varying degrees in organs such as liver and spleen,low metabolism,12 h,high photodynamic anticancer activity,1.23,6.77,no killing and growth inhibitory effect,69,85,high photodynamic antibacterial activity,no killing and growth inhibitory effect,–,–
C[N+](C)(C)c1cccc(Oc2c(Oc3cccc([N+](C)(C)C)c3)c(Oc3cccc([N+](C)(C)C)c3)c3c(c2Oc2cccc([N+](C)(C)C)c2)C2=Nc4c5ccccc5c5[n]4[Zn@]46[n]7c(c8ccccc8c7=NC3=[N+]24)=NC2=[N+]6C(=N5)c3ccccc32)c1 [Example 4],–,–,–,–,–,high photodynamic anticancer activity,1.00,6.68,no killing and growth inhibitory effect,80,74,high photodynamic antibacterial activity,no killing and growth inhibitory effect,poor accumulation ability in tumor sites,–
"C[N+](C)(C)c1cccc(Oc2cc3c(cc2Oc2cccc([N+](C)(C)C)c2)C2=[N+]4C3=Nc3c5cc(Oc6cccc([N+](C)(C)C)c6)c(Oc6cccc([N+](C)(C)C)c6)cc5c5[n]3[Zn]43[n]4c(c6cc(Oc7cccc([N+](C)(C)C)c7)c(Oc7cccc([N+](C)(C)C)c7)cc6c4=NC4=[N+]3C(=N5)c3cc(Oc5cccc([N+](C)(C)C)c5)c(Oc5cccc([N+](C)(C)C)c5)cc34)=N2)c1 [Example 6, 2,3,9,10,16,17,23,24-octa[3-(trimethylammonium)phenoxy]zinc phthalocyanine octaiodate]",–,–,enriched to varying degrees in organs such as liver and spleen,low metabolism,about 12 h,–,1.50,7.22,no killing and growth inhibitory effect,83,71,–,no killing and growth inhibitory effect,–,–
CN(C)c1ccc2nc3ccc(=[N+](C)C)cc-3sc2c1 [MB],–,–,–,–,–,–,–,–,–,–,–,–,–,–,IC90 (Staphylococcus aureus [4]): 5900 nM
hexadeca-[3-(dimethylammonium)phenoxy]zinc phthalocyanine hexadecaiodate [Example 8],714,monomers,–,rapid metabolism in vivo,2 h,–,2.25,–,no killing and growth inhibitory effect,86,–,–,no killing and growth inhibitory effect,excellent targeting ability,"appearance of infected skin site (Staphylococcus aureus [5]; +laser group): crusted; inhibition rate of Staphylococcus aureus colonies from excised tissue (Staphylococcus aureus [5]; +laser group, topical dressing 2x2 h (1% CEL), laser (685±5) nm 9.4 mW·cm^-2 5 min): 98%; appearance of infected skin site (Staphylococcus aureus [5]; compound without laser): obvious lumps; time until basically scavenged by the body's metabolism (liver cancer H22; 0.8 mol·Kg^-1): about 6 h; toxicity to mice (subcutaneous tumors; i.v. 0.8 mol·Kg^-1, 14 d): no obvious toxicity; tumor inhibition rate (subcutaneous tumors; medication+laser group, i.v. 0.8 mol·Kg^-1, laser (685±5) nm 9.4 mW cm^-2 10 min after 1 h, 14 d): 98.7%; body weight of the mice in the treatment group (subcutaneous tumors; within 14 d): tendency to increase; pIC50 ([2]; HepG2, 2 h incubation, red light >600 nm, 15 mW cm^-2, 30 min, MTT, read-out: half maximal inhibitory concentration (IC50)): 7.40; IC90 (Staphylococcus aureus [3]): 69 nM"
